Measured values from ChEMBL document CHEMBL1121926, “Adriamycin analogues. Preparation and antitumor evaluation of 7-O-(beta-D-glucosaminyl)daunomycinone and 7-O-(beta-D-glucosaminyl)adriamycinone and their N-trifluoroacetyl derivatives” (1982).

Tests used:
Assay type in all cases: functional
Mus musculus [1] = assay: Percent increase in life span was calculated against L1210 murine leukemia cells in BDF1 male mice at the specified in vivo dose of 90(mg/kg)/day.
Mus musculus [2] = assay: Median day of death was calculated against L1210 murine leukemia cells in BDF1 male mice at the specified in vivo dose of 90(mg/kg)/day
Mus musculus [3] = assay: Median day of death was calculated against L1210 murine leukemia cells in BDF1 male mice at the specified in vivo dose of 120(mg/kg)/day
Mus musculus [4] = assay: Percent increase in life span was calculated against L1210 murine leukemia cells in BDF1 male mice at the specified in vivo dose of 120(mg/kg)/day.
Mus musculus [5] = assay: Median day of death was calculated against L1210 murine leukemia cells in BDF1 male mice at the specified in vivo dose of 3.5(mg/kg)/day
Mus musculus [6] = assay: Percent increase in life span was calculated against L1210 murine leukemia cells in BDF1 male mice at the specified in vivo dose of 3.5(mg/kg)/day.

COc1cccc2c1C(=O)c1c(O)c3c(c(O)c1C2=O)C[C@@](O)(C(C)=O)C[C@@H]3O[C@@H]1O[C@H](CO)[C@@H](O)[C@H](O)[C@H]1N
Increase in life-span (Mus musculus [1]): 60%
Median day of death (Mus musculus [2]): 16

COc1cccc2c1C(=O)c1c(O)c3c(c(O)c1C2=O)C[C@@](O)(C(=O)CO)C[C@@H]3OC1OC(CO)C(O)C(O)C1N (stereo partly specified)
Median day of death (Mus musculus [3]): 14
Increase in life-span (Mus musculus [4]): 40%

COc1cccc2c1C(=O)c1c(O)c3c(c(O)c1C2=O)C[C@@](O)(C(=O)CO)C[C@@H]3O[C@H]1C[C@H](N)[C@H](O)[C@H](C)O1 [DOXORUBICIN]
Median day of death (Mus musculus [5]): 14
Increase in life-span (Mus musculus [6]): 40%
